These results are taken from patent publication US11319324B2, “Pyrazolo-pyrrolo-pyrimidine-dione derivatives as P2X3 inhibitors” (Bayer Aktiengesellschaft, priority 2017, dated 2022).

SMILES strings stand for the structures. Counter-ions that a name gives are not always drawn.

Type in all cases: cell-based
The target of test [1] is T1, human P2X3 receptor (Homo sapiens, UniProt P56373).
T1 sequence (P56373 1-397): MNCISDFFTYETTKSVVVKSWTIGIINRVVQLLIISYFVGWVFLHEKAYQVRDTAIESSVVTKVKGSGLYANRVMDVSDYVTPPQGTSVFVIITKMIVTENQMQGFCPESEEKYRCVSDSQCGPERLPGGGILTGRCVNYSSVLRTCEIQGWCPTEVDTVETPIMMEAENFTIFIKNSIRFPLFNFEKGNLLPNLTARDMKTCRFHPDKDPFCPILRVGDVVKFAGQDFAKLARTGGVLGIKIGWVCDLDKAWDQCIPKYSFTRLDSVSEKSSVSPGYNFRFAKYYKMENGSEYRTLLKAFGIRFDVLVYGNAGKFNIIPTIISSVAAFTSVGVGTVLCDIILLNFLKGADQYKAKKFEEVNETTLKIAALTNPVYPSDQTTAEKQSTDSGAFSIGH
As to the kind of experiment: Intracellular calcium measurement, antagonist activity at human P2X3 receptors (hP2X3 1321N1), Fluo8. The conditions noted are these: column 3); 1321N1 cells, human P2X3, Fluo8, agonist ATP at EC50. Also noted: expressed in transfected cells; host or cells: human astrocytoma 1321N1 (1312N1 [sic]). The gist of the method: (§1)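 Antagonism was assessed by decrease of the Fluo8 calcium signal after ATP challenge, with ATP dosed at the EC50 of whichever receptor was tested. Stable 1321N1 astrocytoma lines expressed either human P2X3 or both P2X2 and P2X3, and were dye-loaded 60 min before a 10 min compound incubation.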
In general terms: Calcium assays in cells follow changes in intracellular calcium, usually with a dye or a luminescent sensor.

The target in the next test is T2, human P2X2/3 receptors (Homo sapiens, UniProt P56373+Q9UBL9).
T2 construct: expressed in transfected cells; host or cells: human astrocytoma 1321N1 (1312N1 [sic])
T2 sequence (P56373 1-397): T1 sequence (P56373 1-397)
T2 sequence (Q9UBL9 1-471): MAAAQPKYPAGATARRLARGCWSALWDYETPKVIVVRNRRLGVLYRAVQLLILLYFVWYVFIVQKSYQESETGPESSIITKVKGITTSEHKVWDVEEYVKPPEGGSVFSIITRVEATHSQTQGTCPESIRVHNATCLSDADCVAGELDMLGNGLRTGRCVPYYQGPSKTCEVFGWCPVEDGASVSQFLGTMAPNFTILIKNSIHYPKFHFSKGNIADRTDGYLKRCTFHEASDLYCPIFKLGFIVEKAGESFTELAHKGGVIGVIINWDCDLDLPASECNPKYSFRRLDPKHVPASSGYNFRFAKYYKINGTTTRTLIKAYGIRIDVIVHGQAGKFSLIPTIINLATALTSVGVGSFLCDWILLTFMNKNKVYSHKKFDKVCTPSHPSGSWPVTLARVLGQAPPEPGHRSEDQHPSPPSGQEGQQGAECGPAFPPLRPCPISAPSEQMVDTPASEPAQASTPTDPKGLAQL
Description: Intracellular calcium measurement, antagonist activity at human P2X2/3 receptors (hP2X23 1321N1), Fluo8. Conditions: for IC50: column 4); 1321N1 cells, human P2X2/3, Fluo8, agonist ATP at EC50; read-out: 4) hP2X2/3 IC50 [nM] (1321N1); for hP2X23/hP2X3* Selectivity (1321N1): ratio of column 4) hP2X2/3 to column 3) hP2X3, 1321N1. The gist of the method: as §1

Test [2] addresses T1, human P2X3 receptor. As to the kind of experiment: Intracellular calcium measurement to assess antagonist activity at human P2X3 receptors (hP2X3 CHO), photina luminescence. Also noted: expressed in transfected cells; host or cells: Chinese hamster ovary (CHO) cells. Conditions: column 2), CHO cells, agonist α,β-methylene-ATP at EC50. The gist of the method:
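Antagonism read as lowered photina luminescence after agonist stimulation in recombinant hP2X3/photina CHO cells. Cells seeded one day earlier (30 °C) and reconstituted with 5 μg/ml coelenterazine in 2 mM Ca-tyrode buffer for 3 h at 37 °C before measurement.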

With `COC[C@H](C)N1Cc2c(n(CC(=O)Nc3ccc(F)cn3)c3cc(C(=O)N4CCOCC4)nn3c2=O)C1=O` [Example 191], the IC50 is 27 nM at human P2X3 receptor [1], more than 32000 nM on human P2X2/3 receptors and 29 nM at human P2X3 receptor [2]. For the same compound, the “hP2X23/hP2X3* Selectivity (1321N1)” value on human P2X2/3 receptors is given as more than 1199.

For the compound `COC[C@H](C)N1Cc2c(n(CC(=O)Nc3ccc(F)cn3)c3cc(C(=O)NC4CC4)nn3c2=O)C1=O` [Example 192], the IC50 on human P2X3 receptor [1] was 37 nM; at human P2X2/3 receptors, more than 19600 nM; on human P2X3 receptor [2], 56 nM. Also, the “hP2X23/hP2X3* Selectivity (1321N1)” value on human P2X2/3 receptors is given as more than 530.

As for `CNC(=O)c1cc2n(CC(=O)Nc3ccc(F)cn3)c3c(c(=O)n2n1)CN([C@@H](C)COC)C3=O` [Example 193], the IC50 on human P2X3 receptor [1] is 125 nM; at human P2X2/3 receptors, more than 22500 nM; at human P2X3 receptor [2] it was 155 nM. Besides, the “hP2X23/hP2X3* Selectivity (1321N1)” value on human P2X2/3 receptors is more than 180.

With `COC[C@H](C)N1Cc2c(n(CC(=O)Nc3ccc(F)cn3)c3cc(C(=O)N4CCC4)nn3c2=O)C1=O` [Example 194], the values for the IC50 at human P2X3 receptor [1], at human P2X2/3 receptors and on human P2X3 receptor [2] were 9 nM, 3200 nM and 18 nM, respectively. Moreover, the “hP2X23/hP2X3* Selectivity (1321N1)” value at human P2X2/3 receptors turned out to be 368.

With `COC[C@H](C)N1Cc2c(n(CC(=O)Nc3ccc(F)cn3)c3cc(C(=O)N(C)CC4CC4)nn3c2=O)C1=O` [Example 195], the IC50 at human P2X3 receptor [1] stood at 22 nM; at human P2X2/3 receptors, 8900 nM; at human P2X3 receptor [2] it was 20 nM. Besides, the “hP2X23/hP2X3* Selectivity (1321N1)” value on human P2X2/3 receptors was 399.

Consider `COC[C@H](C)N1Cc2c(n(CC(=O)Nc3ccc(F)cn3)c3cc(C(=O)N(C)C4CC4)nn3c2=O)C1=O` [Example 196], for which the figures for the IC50 on human P2X3 receptor [1], on human P2X2/3 receptors and on human P2X3 receptor [2] were 15 nM, 4150 nM and 10 nM, respectively. Further, on human P2X2/3 receptors, the “hP2X23/hP2X3* Selectivity (1321N1)” value worked out at 277.

Consider `COC[C@H](C)N1Cc2c(n(CC(=O)Nc3ccc(F)cn3)c3cc(C(=O)NCC(F)F)nn3c2=O)C1=O` [Example 197], for which the IC50 on human P2X3 receptor [1] is 34 nM; at human P2X2/3 receptors, 9800 nM; at human P2X3 receptor [2], 19 nM. Further, the “hP2X23/hP2X3* Selectivity (1321N1)” value on human P2X2/3 receptors was determined as 291.

As to `COC[C@H](C)N1Cc2c(n(CC(=O)Nc3ccc(F)cn3)c3cc(C(=O)N4CCCCC4)nn3c2=O)C1=O` [Example 198], the figures for the IC50 at human P2X3 receptor [1], on human P2X2/3 receptors and at human P2X3 receptor [2] were 16 nM, 9300 nM and 35 nM, respectively. For the same compound, the “hP2X23/hP2X3* Selectivity (1321N1)” value on human P2X2/3 receptors was determined as 581.

For `CC(C)N1Cc2c(n(CC(=O)Nc3ccc(F)cn3)c3cc(C(=O)N(C)CC4CC4)nn3c2=O)C1=O` [Example 199], the IC50 on human P2X3 receptor [1] worked out at 5 nM; at human P2X2/3 receptors, 7000 nM; at human P2X3 receptor [2] it was 11 nM. Moreover, the “hP2X23/hP2X3* Selectivity (1321N1)” value on human P2X2/3 receptors was 1321.

As for `CC(C)N1Cc2c(n(CC(=O)Nc3ccc(F)cn3)c3cc(C(=O)Nc4ccccc4F)nn3c2=O)C1=O` [Example 200], the IC50 on human P2X3 receptor [1] amounted to 38 nM; at human P2X2/3 receptors it was 3950 nM; at human P2X3 receptor [2], 44 nM. Besides, the “hP2X23/hP2X3* Selectivity (1321N1)” value on human P2X2/3 receptors was determined as 105.

In the case of `CC(C)N1Cc2c(n(CC(=O)Nc3ccc(F)cn3)c3cc(C(=O)N4CCC4)nn3c2=O)C1=O` [Example 223, 2-[2-(azetidin-1-ylcarbonyl)-5,8-dioxo-6-(propan-2-yl)-5,6,7,8-tetrahydro-4H-pyrazolo[1,5-a]pyrrolo[3,4-d]pyrimidin-4-yl]-N-(5-fluoropyridin-2-yl)acetamide], the IC50 at human P2X3 receptor [1] came out at 56 nM; on human P2X2/3 receptors it was 8920 nM; at human P2X3 receptor [2], 23 nM. Also, the “hP2X23/hP2X3* Selectivity (1321N1)” value at human P2X2/3 receptors is 158.

Take `CC(C)N1Cc2c(n(CC(=O)Nc3ccc(F)cn3)c3cc(C(=O)N4CCOCC4)nn3c2=O)C1=O` [Example 225, N-(5-fluoropyridin-2-yl)-2-[2-(morpholin-4-ylcarbonyl)-5,8-dioxo-6-(propan-2-yl)-5,6,7,8-tetrahydro-4H-pyrazolo[1,5-a]pyrrolo[3,4-d]pyrimidin-4-yl]acetamide]: the IC50 at human P2X3 receptor [1] was 67 nM; at human P2X2/3 receptors, more than 32000 nM; on human P2X3 receptor [2], 37 nM. Besides, the “hP2X23/hP2X3* Selectivity (1321N1)” value on human P2X2/3 receptors is on record as more than 481.

Take `CC(C)N1Cc2c(n(CC(=O)Nc3ccc(F)cn3)c3cc(C4CCN(C(=O)OC(C)(C)C)CC4)nn3c2=O)C1=O` [Example 227, tert-butyl 4-[4-{2-[(5-fluoropyridin-2-yl)amino]-2-oxoethyl}-5,8-dioxo-6-(propan-2-yl)-5,6,7,8-tetrahydro-4H-pyrazolo[1,5-a]pyrrolo[3,4-d]pyrimidin-2-yl]piperidine-1-carboxylate]: the IC50 at human P2X3 receptor [1] turned out to be 71 nM; on human P2X2/3 receptors it was 9300 nM; at human P2X3 receptor [2] it was 24 nM. Besides, at human P2X2/3 receptors, the “hP2X23/hP2X3* Selectivity (1321N1)” value worked out at 132.

Regarding `CC(C)N1Cc2c(n(CC(=O)Nc3ccc(F)cn3)c3cc(C4CCS(=O)(=O)CC4)nn3c2=O)C1=O` [Example 229, 2-[2-(1,1-dioxo-1lambda^6-thian-4-yl)-5,8-dioxo-6-(propan-2-yl)-5,6,7,8-tetrahydro-4H-pyrazolo[1,5-a]pyrrolo[3,4-d]pyrimidin-4-yl]-N-(5-fluoropyridin-2-yl)acetamide], the results for the IC50 at human P2X3 receptor [1], on human P2X2/3 receptors and at human P2X3 receptor [2] were 27 nM, more than 32000 nM and 39 nM, respectively. Further, on human P2X2/3 receptors, the “hP2X23/hP2X3* Selectivity (1321N1)” value is recorded as more than 1185.

In the case of `CCc1cc2n(CC(=O)Nc3ccc(F)cn3)c3c(c(=O)n2n1)CN(C[C@H]1CCCN1)C3=O` [Example 233, 2-{2-ethyl-5,8-dioxo-6-[(2R)-pyrrolidin-2-ylmethyl]-5,6,7,8-tetrahydro-4H-pyrazolo[1,5-a]pyrrolo[3,4-d]pyrimidin-4-yl}-N-(5-fluoropyridin-2-yl)acetamide hydrochloride (1:1)], the results for the IC50 on human P2X3 receptor [1], at human P2X2/3 receptors and at human P2X3 receptor [2] were 1060 nM, more than 32000 nM and 335 nM, respectively. The “hP2X23/hP2X3* Selectivity (1321N1)” value at human P2X2/3 receptors is given as more than 30.

As for `CC(C)N1Cc2c(n(CC(=O)Nc3ccc(F)cn3)c3cc(C4CCNCC4)nn3c2=O)C1=O.Cl` [Example 234, 2-[5,8-dioxo-2-(piperidin-4-yl)-6-(propan-2-yl)-5,6,7,8-tetrahydro-4H-pyrazolo[1,5-a]pyrrolo[3,4-d]pyrimidin-4-yl]-N-(5-fluoropyridin-2-yl)acetamide hydrochloride (1:1)], the IC50 on human P2X3 receptor [1] is 370 nM; on human P2X2/3 receptors, more than 32000 nM; on human P2X3 receptor [2], 125 nM. Moreover, at human P2X2/3 receptors, the “hP2X23/hP2X3* Selectivity (1321N1)” value is listed as more than 86.

On to `CCc1cc2n(CC(=O)Nc3ccc(F)cn3)c3c(c(=O)n2n1)CN(CC1CCNC1)C3=O.Cl` (centres unmarked) [Example 238], for which the IC50 is 650 nM on human P2X3 receptor [1], more than 32000 nM on human P2X2/3 receptors and 550 nM at human P2X3 receptor [2]. On human P2X2/3 receptors, the “hP2X23/hP2X3* Selectivity (1321N1)” value was more than 49.

In the case of `CCc1cc2n(CC(=O)Nc3ccc(F)cn3)c3c(c(=O)n2n1)CN(CC1CCCN1)C3=O.Cl` (centres unmarked) [Example 239], the results for the IC50 at human P2X3 receptor [1], at human P2X2/3 receptors and at human P2X3 receptor [2] were 650 nM, more than 32000 nM and 220 nM, respectively. The “hP2X23/hP2X3* Selectivity (1321N1)” value at human P2X2/3 receptors is on record as more than 49.

Take `CCc1cc2n(CC(=O)Nc3ccc(F)cn3)c3c(c(=O)n2n1)CN(CC1CCNCC1)C3=O.Cl` [Example 240]: the IC50 is 1270 nM on human P2X3 receptor [1], more than 32000 nM on human P2X2/3 receptors and 628 nM at human P2X3 receptor [2]. Moreover, on human P2X2/3 receptors, the “hP2X23/hP2X3* Selectivity (1321N1)” value is recorded as more than 25.

As for `CC(C)N1Cc2c(n(CC(=O)Nc3ccc(F)cn3)c3cc(C4CNC4)nn3c2=O)C1=O.Cl` [Example 244], the IC50 was 280 nM on human P2X3 receptor [1], 7900 nM on human P2X2/3 receptors and 330 nM at human P2X3 receptor [2]. The “hP2X23/hP2X3* Selectivity (1321N1)” value on human P2X2/3 receptors was determined as 28.
